# Source: the supplement of paper PMC11208160
# Assay: recombinant UMI read abundance after kanamycin selection (control-corrected) (log10(CPM+1)); higher = more efficient recombination; extreme values may be limits of the assay; sequences stand for … in AGTGCAGAGAAAATCGGCCAGTTTTCTCTGCCTGCAGTCCGCATGCCGTGGGACCCCTTGGGTTCTAACCTGTTGCCTAGATTTATGCAGCGGACTGCCTTTCTCCCAAAGTGATAAACCGG…AGGTTGGTTTCACT; site = the 11-nt donor
# Summary of the method: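 Two replicates each of selected and unselected plating were used in this pooled Escherichia coli screen of donor and donor-binding-loop pairs for the IS621 bridge recombinase. Selection was with IPTG (0.07 mM) and kanamycin. Counts of recombinant UMIs, amplified across the donor–target junction, were converted to CPM, averaged, scaled by control-derived factors and reported as log10(CPM+1).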
# 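Also: IS621 bridge recombinase in Escherichia coli cells against a fixed T5 target plasmid.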
row,Sequence,recombinant UMI read abundance (log10)
1,TGTTCCCCATGGACCGGTTTTCCCGGTAATCCGTATTTGTA (site AGTTCCCCTTA),0.355
2,ACAGTACCATGGACCGGTTTTCCCGGTAATCCGTATTTGCA (site ACAGTATCTTG),1.71
3,ACACTAACATGGACCGGTTTTCCCGGTAATCCGTATTTGTC (site ACACAAACTGA),0
4,GTTCGATCATGGACCGGTTTTCCCGGTAATCCGTATTTGCA (site GTTCGATCTTG),2.08
5,CTAGTAACATGGACCGGTTTTCCCGGTAATCCGTATTTGTC (site CTAGTAACTGA),2.78
6,GCGGAGTCATGGACCGGTTTTCCCGGTAATCCGTATTTGTT (site GCGGAGTCTAA),3.15
7,GAATTGCCATGGACCGGTTTTCCCGGTAATCCGTATTTGCA (site GAATCGCCTTG),0
8,TGTATGGCATGGACCGGTTTTCCCGGTAATCCGTATTTGAC (site TGTATGGCTGT),1.25
9,CCTAAAGCATGGACCGGTTTTCCCGGTAATCCGTATTTGAA (site CCTAAAGCTGT),0
10,CCCGGGCCATGGACCGGTTTTCCCGGTAATCCGTATTTGCA (site CCCGGACCTTG),0
11,CTCAAATCATGGACCGGTTTTCCCGGTAATCCGTATTTGAA (site CTCAAATCTTT),0.789
12,GGATAGACATGGACCGGTTTTCCCGGTAATCCGTATTTGGC (site GGATAGACTGG),0
13,CCACCACCATGGACCGGTTTTCCCGGTAATCCGTATTTGTA (site CCACCACCTTA),0.00663
14,CTGCTACCATGGACCGGTTTTCCCGGTAATCCGTATTTGCT (site CTGCTACCTAT),0
15,ATGTACGCATGGACCGGTTTTCCCGGTAATCCGTATTTGGC (site ATGTACGCTGC),3.06
16,AAGCACGCATGGACCGGTTTTCCCGGTAATCCGTATTTGGG (site AATCACGCTCC),0.0177
17,CTAATGACATGGACCGGTTTTCCCGGTAATCCGTATTTGCA (site CTAATGACTTG),2.01
18,AGGTTCCCATGGACCGGTTTTCCCGGTAATCCGTATTTGGG (site AGGTTCCCTCA),0.0189
19,AAAAGGCCATGGACCGGTTTTCCCGGTAATCCGTATTTGAC (site ACAAGGCCTGT),0
20,GTGCATGCATGGACCGGTTTTCCCGGTAATCCGTATTTGGT (site GTGCATGCTCC),0.0111
21,AAGCACACATGGACCGGTTTTCCCGGTAATCCGTATTTGTT (site AAGCACACTAA),1.8
22,GTATGCACATGGACCGGTTTTCCCGGTAATCCGTATTTGTA (site GTAAGCACTTA),0.776
23,ACCTAGACATGGACCGGTTTTCCCGGTAATCCGTATTTGGA (site ACCTAGACTTC),0.725

row,Sequence,recombinant UMI read abundance (log10)
1,TGGCCGGCATGGACCGGTTTTCCCGGTAATCCGTATTTGGC (site TGGCCGTCTGC),0
2,CTGCTACCATGGACCGGTTTTCCCGGTAATCCGTATTTGCT (site CTCCTACCTAG),0
3,GTGCGGGCATGGACCGGTTTTCCCGGTAATCCGTATTTGGT (site GTGCGGGCTAC),0.486
4,TGCTAGGCATGGACCGGTTTTCCCGGTAATCCGTATTTGGT (site CGCTAGGCTAC),0.019
5,GATCGAGCATGGACCGGTTTTCCCGGTAATCCGTATTTGCA (site GCTCGAGCTTG),1.17
6,CTGCCACCATGGACCGGTTTTCCCGGTAATCCGTATTTGCT (site CTGCAACCTAG),0
7,CGGACGTCATGGACCGGTTTTCCCGGTAATCCGTATTTGCT (site CGGACATCTAG),2.54
8,TAACTTACATGGACCGGTTTTCCCGGTAATCCGTATTTGAT (site TAACTTACTAT),0.731
9,GGACGTACATGGACCGGTTTTCCCGGTAATCCGTATTTGTG (site GGACGTACTCA),1.09
10,CTTCCTACATGGACCGGTTTTCCCGGTAATCCGTATTTGAG (site CTCCCTACTCT),0.0168
11,TAGCTAGCATGGACCGGTTTTCCCGGTAATCCGTATTTGAT (site TAGCTAGCTCT),0.0164
12,TGGTCCCCATGGACCGGTTTTCCCGGTAATCCGTATTTGTA (site TGGTCCCCTTA),0.0183
13,TGGATGTCATGGACCGGTTTTCCCGGTAATCCGTATTTGAA (site TGGATGTCTTT),2.11
14,CAATGGTCATGGACCGGTTTTCCCGGTAATCCGTATTTGAA (site CAATGATCTTT),2.68
15,GGCAGTCCATGGACCGGTTTTCCCGGTAATCCGTATTTGAA (site GGCACTCCTTT),0.018
16,ATTGAGACATGGACCGGTTTTCCCGGTAATCCGTATTTGAT (site ATTGAGACTAA),0.37
17,GTAGGGACATGGACCGGTTTTCCCGGTAATCCGTATTTGAC (site GTAGGAACTGT),2.21
18,TCATACTCATGGACCGGTTTTCCCGGTAATCCGTATTTGCC (site TCATACTCTCG),0
19,AGTTTCGCATGGACCGGTTTTCCCGGTAATCCGTATTTGGT (site AGTTTCGCTAC),0.564
20,AGGAAGCCATGGACCGGTTTTCCCGGTAATCCGTATTTGCC (site AGGAAGACTTG),0
21,CGCCATACATGGACCGGTTTTCCCGGTAATCCGTATTTGCT (site CGCCATACTAG),1.64
22,CTAGTATCATGGACCGGTTTTCCCGGTAATCCGTATTTGAG (site CTAGTATCTGT),1.68
23,GGAGGTACATGGACCGGTTTTCCCGGTAATCCGTATTTGAC (site GGAGGTACTGT),1.39

row,Sequence,recombinant UMI read abundance (log10)
1,GGTGTAGCATGGACCGGTTTTCCCGGTAATCCGTATTTGGT (site GGTGTAGCTAC),0.0948
2,CGGTCACCATGGACCGGTTTTCCCGGTAATCCGTATTTGTA (site CGGTCACCTTA),0
3,TGAAAGGCATGGACCGGTTTTCCCGGTAATCCGTATTTGCT (site TGAAAGGCTAG),2.34
4,CCCTAACCATGGACCGGTTTTCCCGGTAATCCGTATTTGCC (site CCCTATCCTGG),0
5,CTCTCCTCATGGACCGGTTTTCCCGGTAATCCGTATTTGCC (site CACTCCTCTGG),2.68
6,CGTTGGACATGGACCGGTTTTCCCGGTAATCCGTATTTGAG (site CGTTGGACTCT),1.36
7,TGTCGAGCATGGACCGGTTTTCCCGGTAATCCGTATTTGTA (site TGTCGAGCTTA),0.92
8,TCAGTAGCATGGACCGGTTTTCCCGGTAATCCGTATTTGCA (site TCAGTAGCTTG),1.9
9,TTCTAGGCATGGACCGGTTTTCCCGGTAATCCGTATTTGCG (site TTCTAGGCTCG),0.0116
10,GATTATCCATGGACCGGTTTTCCCGGTAATCCGTATTTGCA (site GATTATCCTGG),0
11,ACATTATCATGGACCGGTTTTCCCGGTAATCCGTATTTGCA (site ACATTATCTTG),2.01
12,CCTTTTACATGGACCGGTTTTCCCGGTAATCCGTATTTGCT (site CCGTTTACTAG),0.00369
13,CCCGAGCCATGGACCGGTTTTCCCGGTAATCCGTATTTGCC (site CCCCAGCCTGG),0
14,ATGTAGCCATGGACCGGTTTTCCCGGTAATCCGTATTTGGC (site ATGTAGTCTGC),1.33
15,CGTTTGGCATGGACCGGTTTTCCCGGTAATCCGTATTTGAT (site CGTTTGGCTAC),0.0714
16,GGCAATTCATGGACCGGTTTTCCCGGTAATCCGTATTTGAA (site GGCAATGCTTT),0.0122
17,GTATTAACATGGACCGGTTTTCCCGGTAATCCGTATTTGTG (site GTATTAACTCA),2.02
18,TGGATGACATGGACCGGTTTTCCCGGTAATCCGTATTTGCA (site AGGAAGACTTG),0.54
19,TTAGCTCCATGGACCGGTTTTCCCGGTAATCCGTATTTGTG (site TTAGCTCCTCA),0.0123
20,CTAGTCACATGGACCGGTTTTCCCGGTAATCCGTATTTGGG (site CCAGTCACTCC),0.0093
21,CGAACGTCATGGACCGGTTTTCCCGGTAATCCGTATTTGCT (site CGAACGTCTAG),2.87
22,CAGTCGGCATGGACCGGTTTTCCCGGTAATCCGTATTTGGG (site CAGTCGTCTCC),0.0153
23,TGACCATCATGGACCGGTTTTCCCGGTAATCCGTATTTGCT (site CGATCATCTAG),0
